Values quoted from earlier work as cited in patent publication US20210393545A1, “NATURAL PRODUCT COMPOSITION FOR STIMULATING HAIR GROWTH” (priority 2018, published 2021).

Columns and labels:
[1] = system: testosterone 5 alpha reductase; conditions: reported in the literature
OR2AT4 = molecular target: T1, OR2AT4 (Homo sapiens, UniProt A6NND4); conditions: human hair follicles ex vivo
T1 construct: from tissue; host or cells: human hair follicles (outer root sheath epithelium), ex vivo
T1 sequence (A6NND4 1-320): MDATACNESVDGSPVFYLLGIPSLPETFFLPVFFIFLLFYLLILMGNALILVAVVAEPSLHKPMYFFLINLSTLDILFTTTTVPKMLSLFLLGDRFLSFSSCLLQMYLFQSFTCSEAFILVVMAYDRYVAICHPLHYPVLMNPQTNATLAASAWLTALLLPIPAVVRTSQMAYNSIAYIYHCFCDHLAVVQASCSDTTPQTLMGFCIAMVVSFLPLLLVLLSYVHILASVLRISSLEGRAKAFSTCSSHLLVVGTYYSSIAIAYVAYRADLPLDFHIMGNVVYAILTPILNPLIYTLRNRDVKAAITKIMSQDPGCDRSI

| apoptosis (OR2AT4) | human hair growth ex vivo (OR2AT4) | SMILES | 5 alpha reductase activity [1] | production of IGF-1 (OR2AT4) |
| --- | --- | --- | --- | --- |
|  |  | CC(C)c1cc2c(c(O)c1O)[C@@]1(C(=O)O)CCCC(C)(C)[C@@H]1CC2 [carnosic acid] | active ingredient in suppressing 5 alpha reductase activity |  |
| decreasing apoptosis | prolongs human hair growth ex vivo | CC1=CCC(CCC(C)C(C)O)C1(C)C (stereo not shown) [Sandalore®, 3-methyl-5(2,2,3-Trimethylcyclepent-3-en-1-yl) pentan-2-ol] |  | increasing production of the anagen-prolonging growth factor IGF-1 |
